Experimental data taken from patent US20110064773A1, “PHARMACEUTICAL COMPOSITIONS COMPRISING A THYROID HORMON AND THEIR THERAPEUTIC USE” (UNIVERSITE JOSEPH FOURIER, priority 2007, published 2011).

How the values were obtained:
[1] = system: nuclear receptors of the thyroid hormones, TRα-1 and TRβ-1; settings: literature statements; cited from earlier work
[2] = system: normal rats receiving a high-fat diet; settings: daily peritoneal injection, vs untreated rats; cited from earlier work
Wistar rats [3] = test: Growth rate (body weight) and food intake of Wistar rats; format: in vivo, rat
Procedure: Adult male rat bred in the animal room facilities of Laboratory of Fundamental and Applied Bioenergetics (Wistar strain) or purchased from Charles-River Laboratories, Domaine des oncins, L'ARBRESLE France [(genetically obese normoglycemic (Zucker or Fa/Fa) or diabetic (ZDF)] were caged individually in stainless steel hanging cages and maintained in a 22° C., 50±10% relative humidity and 12 h:12 h light:dark environment. All animals were fed ad libitum with a standard rat chow (Safe A04, Villemoisson, France) and tap water. Body mass and food intake were recorded twice/thrice a week and fresh food was provided at the same time to ensure minimal disturbance to the animals' food behavior.
Eight-week old rats (300 g±10 g) were anesthetized by simultaneous intraperitoneal injection of diazepam 4 mg/kg and ketamine 100 mg/kg. In order to maintain body temperature during the surgery (10 min), animals were placed on a warm blanket. After interscapular shaving, a small incision of 0.5 cm of the skin allows the subcutaneous implantation of a small pellet (containing rT3 or 3′,3-T2) with a 10-gauge precision trochar. The pellets, manufactured by Innovative Research of America (Sarasota, Fla., USA) are constituted of a biodegradable matrix that effectively and continuously release the active product in the animal.
[…] (reverseT3) or 3-3′ diiodothyronine (3-3′ T2) were used at different doses (5, 0.5, or 0.1 mg/pellet) were implanted in order to provide a continuous and constant drug delivery over 60 days (which represents 25 μg, 2.5 μg or 0.5 μg/day/100 g BW).
Wistar rats were treated with rT3 hormone by a daily intraperitoneal injection (IP) (25 μg/100 g BW), a daily sub-cutaneous injection (SC) (25 μg/100 g BW), or a per os administration included in the rat food (25 μg/100 g BW). The continuous and constant administration was performed by using a pellet (25 μg/100 g BW).
However the role of the administration site was further investigated by comparing continuous administration of rT3 by osmotic pump implanted either subcutaneously or intraperitonally with the reference treatment administered by sub-cutaneous pellets. Wistar rats were treated for 21 days with placebo, sub-cutaneous pellet or sub-cutaneous or intraperitoneal osmotic pumps. rT3 was administered continuously (2.5 μg/100 g).
Wistar rats were treated by a continuous and constant administration of low doses of rT3 by 3 different methods of administration: • a sub-cutaneous pellet, • an osmotic pump placed under the skin, and • an osmotic pump placed in the peritoneal cavity.

Wistar rats [4] = test: Indirect calorimetry (energy expenditure, respiratory quotient) of Wistar rats; format: in vivo, rat; settings: 25 μg/100 g BW pellet, vs placebo
Excerpt: Energy expenditure as well as the nature of substrate oxidized (carbohydrates or lipids) were investigated by indirect calorimetry. This principle is based on the determinations of CO2 release (VCO2) and O2 consumption (VO2) by each animal. It assumes that O2 is entirely involved in substrate oxidation in the respiratory chain (leading to water production) while CO2 release is related to substrate decarboxylation (in the Krebs' cycle). These measurements allow assessing energy expenditure (EE) and respiratory quotient ([…], RQ). EE represent the absolute energy dissipation during rest and activity. RQ is a relative measurement indicating the ratio of carbohydrate versus lipid involved in oxidative pathway. A ratio of 1.0 indicates exclusive carbohydrate oxidation while a ratio of 0.7 indicates exclusive lipid oxidation. Each value between these two extreme values indicates the relative proportion of each substrate (of note protein oxidation was not evaluated). As an example, RQ approaches 0.7 during fasting, indicating lipid oxidation, conversely after feeding RQ increases close to 1 indicating carbohydrate oxidation resulting from food intake and blood insulin rise. Likewise, animals fed high-carbohydrate diets have higher RQs than those fed high-fat diets.
The indirect calorimetry system (Panlab, Barcelona, Spain) consists of cages, pumps, flow controllers, valves, and analyzers. It is computer-controlled in order to sequentially measure O2 and CO2 concentrations as well as air flow in four separate cages allowing four simultaneous determinations. Rats are isolated in one of the four metabolic chambers, and room air is used as a reference to monitor ambient O2 and CO2 concentrations periodically.
At predefined intervals, the computer sends a signal to store differential CO2 and O2 concentrations, flow rate, allowing computing VCO2, VO2, RQ, and EE (Weir equation) with data acquisition hardware (Metabolism, Panlab, Barcelona, Spain).

Wistar rats [5] = test: Body composition (adipose tissues, skeletal muscles, brown adipose tissue) of Wistar rats; format: in vivo, rat; settings: three weeks, vs placebo
Excerpt: (§1) At the end of the experimental period, animals were sacrificed by decapitation, in order to avoid the well-known effects of general anesthetics on mitochondrial metabolism. Blood samples were immediately collected and plasma was frozen for subsequent determination of serum metabolites and hormones. Liver, muscles and fat depots were quickly excised and weighed. Liver median lobe was rapidly freeze-clamped. Muscles (plantaris, soleus and gastrocnemius) were frozen in isopentane precooled in liquid nitrogen. Mesenteric fat consisted of adipose tissue surrounding the gastro-intestinal tract from the gastro-oesophageal sphincter to the end of the rectum with special care taken in distinguishing and removing the pancreas. Retroperitoneal fat pad was taken as the distinct depot behind each kidney along the lumbar muscles. Epididymal fat consisted of adipose tissue on top of the epididymis. For subcutaneous depot measurement, a rectangular piece of skin was taken on the right side of each animal from the median line of the abdomen between the spine and the right hip to the first rib. Interscapular brown adipose tissue was removed and dissected free from adjacent muscles and white adipose tissue. The heart ventricles, the right kidney and the spleen were also excised, weighed and frozen.

liver mitochondria = test: Rate of liver mitochondrial oxygen consumption (JO2) of treated Wistar rats; format: in vivo, rat; settings: high dose 250 μg/kg BW/day, various substrates, vs placebo
Procedure: (§2) The major part of the liver and the red part of each quadriceps were rinsed, and chopped into isolation medium (250 mM sucrose, 20 mM Tris-HCl and 1 mM EGTA-Tris, pH 7.4). Nuclei and cell debris were removed by centrifugation at 800 g for 10 min. Mitochondria were then isolated from the supernatant by spinning twice at 8,000 g for 10 minutes. The mitochondrial pellet was resuspended in 0.5 ml of isolation buffer and kept on ice. Mitochondrial protein was measured by the bicinchoninic acid method (Pierce, Rockford, Ill.). The final mitochondrial suspensions were maintained on ice and were used for measurements of oxygen consumption rate.
(§3) The rate of mitochondrial oxygen consumption (JO2) was measured at 30° C. in an incubation chamber with a Clark-type O2 electrode filled with 2 ml of incubation medium (125 mM KCl, 10 mM Pi-Tris, 20 mM Tris-HCl, 0.1 mM EGTA, pH 7.2). All measurements were performed using mitochondria (1.0 or 0.2 mg mitochondrial protein/ml for liver and skeletal muscle) incubated either with various substrates: glutamate/malate (5 mM/2.5 mM) and succinate (5 mM), alone or in combination, palmitoyl carnitine (55 μM) and octanoyl carnitine (100 μM). For each substrate, JO2 was recorded in the presence of the substrate alone (State 2) and following the addition of 1 mM ADP (state 3). Oligomycin (1.25 μg/mg protein) was added to the mitochondrial suspension to determine the non-phosphorylating respiratory rate (state 4). The incubation medium was constantly stirred with a built-in electromagnetic stirrer and bar flea. The efficiency of the mitochondrial oxidative phosphorylation was assessed by the state 3/state 4 ratio which measures the degree of control imposed on oxidation by phosphorylation (respiratory control ratio, RCR).

muscle mitochondria = test: Rate of muscle mitochondrial oxygen consumption (JO2) of treated Wistar rats; format: in vivo, rat; settings: 250 μg/kg BW/day, vs placebo
Procedure: as §2, §3

Wistar rats [6] = test: Plasma concentrations of glucose, triglycerides, cholesterol, FFA and HDL in Wistar rats; format: in vivo, rat; settings: day of sacrifice, vs placebo
Excerpt: These measurements were done on venous blood of the rats the day of the sacrifice.
as §1
Glucose and 3-hydroxybutyrate (3-HB) were measured enzymatically and non esterified fatty acid (NEFA) by colorimetric assay (Wako Chemicals).
Triglycerides and cholesterol were measured by classical routine automate apparatus.

[7] = high dose 25 μg/100 g BW pellet
[8] = Wistar rats, high dose 250 μg/kg BW/day

## N[C@@H](Cc1cc(I)c(Oc2ccc(O)c(I)c2)c(I)c1)C(=O)O [T3]
[1]
  Binding to the nuclear (TH) receptors: binds very efficiently

## N[C@@H](Cc1cc(I)c(Oc2cc(I)c(O)c(I)c2)c(I)c1)C(=O)O [T4, thyroxine]
[1]
  Binding to the nuclear (TH) receptors: binds less efficiently

## NC(Cc1cc(I)c(Oc2ccc(O)cc2)c(I)c1)C(=O)O (centres unmarked) [3,5-T2]
[2]
  Fat deposit: less fat deposit
  Weight gain: gained less weight

## N[C@@H](Cc1ccc(Oc2ccc(O)c(I)c2)c(I)c1)C(=O)O [3,3′-T2, 3′,3-diiodothyronine]
Wistar rats [3]; 25 μg/100 g BW pellet, from day 4 until day 7
  Food intake immediately after the pellet: decrease
Wistar rats [3]; high dose 25 μg/100 g BW pellet, 21 days, vs placebo
  Food intake (appetite): higher value as compared to those of placebo animals
Wistar rats [3]; high dose 25 μg/100 g BW, subcutaneous pellet, 21 days, vs placebo
  Growth rate (body weight): did not show any weight gain
Wistar rats [4]
  Respiratory quotient (RQ) during the day (diurnal period): lower than that of placebo
  Respiratory quotient (RQ) during the night: almost the same as those described for rT3
Wistar rats [5]; 250 μg/kg BW pellet
  Fat mass: significantly decreased
Wistar rats [5]; [7]
  Brown adipose tissue mass: significantly increased
  Muscle mass (lean body mass): not affected
Liver mitochondria
  Liver mitochondrial respiratory rate, non-phosphorylating (state 4, oligomycin): much higher as compared to placebo
  Liver mitochondrial respiratory rate, phosphorylating (state 3, ADP): very significant increased respiratory rate
Muscle mitochondria
  Muscle mitochondrial respiration, non-phosphorylating (state 4): failed to substantially affect
  Muscle mitochondrial respiration, phosphorylating (state 3): failed to substantially affect
Wistar rats [6]; Wistar rats, 250 μg/kg BW/day
  Cholesterol plasmatic concentration: significantly lower
Wistar rats [6]; [8]
  Plasma free fatty acids (FFA): higher
  Triglycerides plasmatic concentration: significantly lower
Wistar rats [6]; normal (non diabetic) Wistar rats, 250 μg/kg BW/day
  Fasting glucose plasmatic concentration: slightly increased
